From US10799475B2, “Substituted phenyl aziridine precursor analogs for inhibiting androgen-independent prostate cancer cell growth” (Northwestern University, priority 2007, dated 2020)

Target: T1, GR (Homo sapiens, UniProt P04150)
T1 sequence (P04150 1-777): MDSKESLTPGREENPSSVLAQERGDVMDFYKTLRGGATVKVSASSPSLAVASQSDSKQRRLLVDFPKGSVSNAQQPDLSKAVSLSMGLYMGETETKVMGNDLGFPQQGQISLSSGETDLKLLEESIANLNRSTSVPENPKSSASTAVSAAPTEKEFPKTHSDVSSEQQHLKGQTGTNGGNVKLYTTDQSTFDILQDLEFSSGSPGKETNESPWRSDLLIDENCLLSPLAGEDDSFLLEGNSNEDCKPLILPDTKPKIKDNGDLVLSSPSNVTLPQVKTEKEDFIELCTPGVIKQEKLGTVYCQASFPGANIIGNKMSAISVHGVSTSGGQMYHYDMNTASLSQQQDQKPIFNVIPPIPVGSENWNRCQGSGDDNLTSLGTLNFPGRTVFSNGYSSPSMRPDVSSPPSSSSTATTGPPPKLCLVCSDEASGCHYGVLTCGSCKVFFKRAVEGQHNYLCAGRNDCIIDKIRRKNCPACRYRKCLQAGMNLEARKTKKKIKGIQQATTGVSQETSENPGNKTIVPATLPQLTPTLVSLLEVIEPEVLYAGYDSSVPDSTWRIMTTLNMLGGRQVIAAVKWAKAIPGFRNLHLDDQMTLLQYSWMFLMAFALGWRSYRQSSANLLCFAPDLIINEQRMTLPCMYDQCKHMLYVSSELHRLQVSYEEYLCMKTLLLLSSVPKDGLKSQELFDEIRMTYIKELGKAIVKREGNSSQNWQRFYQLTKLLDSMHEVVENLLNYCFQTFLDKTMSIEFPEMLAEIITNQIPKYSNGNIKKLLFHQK
Assay: TAT.Luc dual Luciferase assay of GR transactivation in PC cells
Type: cell-based
Design: expressed in transfected cells; host or cells: LNCaP-GR (lentiviral GR); also DU145 and PC3 (endogenous GR)
Conditions: PC cells, 24 hours
Description: FIG. 3. Effect of CpdA on GR function in PC cells. A. & B. CpdA-activated GR nuclear translocation. Cells were treated with CpdA, glucocorticoid FA, or anti-glucocorticoid RU486. Panel A (immunofluorescence). Panel B (Western blotting of nuclear protein using HDAC-1 and β-tubulin as protein loading controls). C. CpdA decreased GR-DNA binding (EMSA, nuclear proteins). LNCaP-GR cells were treated with 0.01% DMSO (control), Dex (10^−7 M) or CpdA (10^−5 M) for 4 hours. D. & E. CpdA effect on GR function. PC cells were transiently transfected with TAT.Luc (D) or κB.Luc (E), and control Renilla Luciferase reporters, treated with Dex (10^−6 M) or CpdA (10^−5 M) for 24 hours. For activation of NF-κB, cells were co-transfected with CMV.IKKβ plasmid (in panel E). Reporter activity was assessed by dual Luciferase assay and presented as factor of change.
FIG. 4. CpdA effect on GR function. A. & B. PC cells were transiently transfected with TAT.Luc (A) or κB.Luc (B), and control Renilla Luciferase reporters. Cells were treated with Dex (10^−6 M) and CpdA (10^−5 M) for 24 hours. For activation of NF-κB (as shown in panel B), cells were co-transfected with CMV.IKKβ plasmid. Reporter activity was assessed by dual Luciferase assay and presented as factor of change. […]

With `CC1(C)O[C@@H]2C[C@H]3[C@@H]4C[C@H](F)C5=CC(=O)C=C[C@]5(C)[C@@]4(F)[C@@H](O)C[C@]3(C)[C@]2(C(=O)CO)O1` [FA, fluocinolone acetonide, reference compound] as the compound, how does the “induction of TAT.Luc reporter activity” value read?
The value was 10-15 folds.
